Source: a melting point compilation (Tetko et al.; mined from patent text by program, amines drawn as free bases though some values may be those of a salt)

Row | Compound | melting point
1 | O=C(O)c1cccc(C(=O)O)c1[N+](=O)[O-] | 100 to 101 °C
2 | CCCCCc1cc2c(=O)oc(C(=O)OCC)nc2s1 | 69.6 to 70.5 °C
3 | O=C(Nc1ccc(Sc2c(O)c3c(Cl)cc(Cl)cc3[nH]c2=O)cc1)c1cccnc1 | > 300 °C
4 | C=C(C)C(=O)Nc1ccc(-n2nc(C(F)(F)F)cc2C(F)(F)F)cc1 | 160 to 162 °C
5 | CC[C@@]12CCCN1[C@@H](C(Cl)(Cl)Cl)OC2=O | 76 to 77 °C
6 | c1cc(CNc2nccc3ccccc23)cc(Nc2nnc3c4c(cccc24)-c2ccccc2-3)c1 | 149 to 152 °C
7 | CC(=O)CC(=O)Nc1ccc(Cn2ccnc2)cc1 | 175 °C
8 | Cc1c(C=Cc2ccccc2)cccc1[N+](=O)[O-] | 75.9 °C
9 | CS(=O)(=O)c1nccn1-c1nc(-c2ccc(Cl)cc2)c(CCC(=O)O)o1 | 166 to 167 °C
10 | N#Cc1c(Cl)nc(Cl)nc1N1CCSCC1 | 180 °C
11 | CCc1cnc(C2=NC(C)(C(C)C)C(=O)N2)c(C(=O)NCCCC(=O)O)c1 (centres undefined) | 165 to 167 °C
12 | CCCCCCCCCc1cc(-c2ccccc2)c(OCC(=O)O)c(-c2ccccc2)c1 | 63 to 65 °C
13 | COc1nc(C)c(N2CCCn3c2nc2c(Cl)ccc(C(OCC(F)(F)F)C4CC4)c23)c(C)n1 (centres undefined) | 225 to 227 °C
14 | N#CCCc1ccc(C(=O)O)cc1 | 182 °C
15 | FC(F)(F)c1ccc(-n2ccc3cnccc32)c(Cl)c1 | 160 to 161 °C
16 | CNC(=O)c1cc(-c2ccc(-c3ccco3)cc2)n(-c2ccc(S(C)(=O)=O)c(F)c2)n1 | 196 to 198 °C
17 | CC(C)(Oc1ccc(OCc2nc(-c3ccc(C(F)(F)F)cc3)no2)cc1)C(=O)O | 164 °C
18 | O=C(CCCl)c1cc2c(s1)CCCC2 | 51 to 53 °C
19 | CC1CCN(CCNc2nn3cnnc3c3c2CCCC3)CC1 | 180 to 181 °C
20 | COc1ccc2c(c1)CC(C)C1C2C(C)CC2(C)C(O)CCC12 (centres undefined) | 130 to 131 °C
21 | O=C(c1ccccc1)c1ccc(OCCCOc2ccc(C(=O)c3ccccc3)cc2)cc1 | 146 to 148 °C
22 | COc1ccccc1Oc1c(Cl)nc(SC)nc1NS(=O)(=O)c1ccc(C(C)(C)C)cc1 | 123 to 124 °C
23 | COc1ccc(Cc2cc(O)ccc2OC)cn1 | 121 to 124 °C
24 | CN1CCN(CCCn2c(N)nc3ccccc32)CC1 | 195 to 197 °C
25 | COc1ccccc1C1(O)C(O)CC(c2ccccc2)(c2ccccc2)C2CN(C(=O)Cc3c[nH]c4ccc(O)cc34)CC21 (mixture of isomers) | 230 to 235 °C

Row | Compound | melting point
26 | CC(=O)C1CCC2C3CCC4CC(C(C(=O)O)C(=O)O)CCC4(C)C3CCC12C (centres undefined) | 214 to 215 °C
27 | Cc1oc(-c2ccccc2)nc1COc1ccc(CCc2oc(-c3ccccc3)nc2CO)cc1 | 142 to 143 °C
28 | O=C(Nc1nnn[nH]1)c1ccc2nc3ccsc3c(=O)n2c1 | 295 to 296 °C
29 | COC(=O)C(O)c1ccc(C#N)cc1 (centres undefined) | 51 to 52 °C
30 | CCOC(=O)C(=CNc1nonc1C)C(=O)c1cc(F)c(F)cc1F | 104 to 107 °C
31 | CCN(CC)CCOc1ccc(Nc2ncc3c(n2)N(C)C(=O)N(c2ccccc2)C3)cc1 | 141 to 144 °C
32 | COc1ccc2c(c1)S(=O)(=O)c1ccccc1C(=O)N2 | 244 to 246 °C
33 | CCc1c(-c2ccc(O)cc2)c2c(COCCCCCCN3CCCCC3)cc3c(O)ccc1n32 | 129 to 131 °C
34 | CC(C)SC1=C(Cl)CSS1=O (centres undefined) | 60 °C
35 | O=S(=O)(c1ccc2c(c1)OC(c1ccccc1)(c1ccccc1)O2)N1CCCCC1 | 163 to 164 °C
36 | C1=C(c2nc(COc3ccc(CCCn4ccnc4)cc3)co2)CCc2ccccc21 | 99 to 100 °C
37 | O=C(COc1ccc([N+](=O)[O-])cc1)OCCO | 73.5 to 75.5 °C
38 | COC(=O)c1ccccc1OCCN1CCC(c2c[nH]c3ccccc23)CC1 | 124 to 125 °C
39 | CC(C)(C)OC(=O)NCc1cccc2c1CN(C1CCC(=O)NC1=O)C2=O (centres undefined) | 239 to 241 °C
40 | CC(=O)Oc1c(C)ccc2c1NC(O)C1CCCN1C2=O (centres undefined) | 142 to 145 °C
41 | COc1cc2c(cc1[N+](=O)[O-])C(=O)C1(CC1)O2 | 160 to 163 °C
42 | CCCCn1c(=O)c2nn(S(=O)(=O)Cc3ccccc3)cc2n(CCCC)c1=O | 90 to 93 °C
43 | COc1cc(N)c2nccc(C)c2c1OCCCCc1ccccc1 | 59 to 59.5 °C
44 | COc1c(N2C[C@]3(C)CC[C@]3(N)C2)c(F)cc2c(=O)c(C(=O)O)cn([C@@H]3C[C@@H]3F)c12 | 123 to 125 °C
45 | CCOC(=O)c1c(C(F)(F)F)nn(-c2c(Cl)cc(Cl)cc2Cl)c1C | 95 to 96 °C
46 | O=C(/C=C/c1ccc(C(F)(F)F)cc1-c1ccncc1)Nc1ccc2[nH]ccc2c1 | 229 to 234 °C
47 | O=C(NCc1ccccc1)c1ccnc(NC(=O)c2cccs2)c1 | 160 to 162 °C
48 | O=C(CCCCCBr)c1cc2c3c(c1)CC(=O)N3CCC2 | 86 to 87 °C
49 | CCCc1ncc(CN2CC=C(c3ccc(F)cc3)CC2)c(N)n1 | 142 to 145 °C
50 | CCOC(=O)c1[nH]c2cc(Cl)cc(Cl)c2c1NCC(=O)c1ccccc1Cc1ccccc1 | 225 to 227 °C

Row | Compound | melting point
51 | Cc1ccc(S(=O)(=O)NC(Cc2ccccc2)C(=O)Nc2c(F)cc(F)cc2F)cc1 (centres undefined) | 180 to 181 °C
52 | OCC(CCNC1CCC(c2ccc(OCc3ccccc3)cc2)CC1)c1ccccc1 (racemic) | 140 to 142 °C
53 | CNC(=O)C1=CC(CF)(CF)Oc2ccc(C(F)(F)C(F)(F)F)cc21 | 127 to 128 °C
54 | O=C1C=CC(=O)N1c1cccc(I)c1 | 154 to 155 °C
55 | O=C(Oc1ccc2cc(CN3CCCC3)ccc2c1)N1CCC(c2ccc(F)cc2)CC1 | 106 to 108 °C
56 | Cc1cc(Oc2ncc(C(F)(F)F)cc2Cl)nn1C(=O)NCCCl | 98 to 100 °C
57 | C#CCN1C(=O)COc2cc(F)c(N(C(=O)CCl)C(=O)C3=C(C(=O)OC)CCCC3)cc21 | 156 to 158 °C
58 | O=C(C1=COCCOCCOCCOCCOCCO1)c1cccnc1 | 98 to 100 °C
59 | CC(=O)C=C(C)Nc1ccccc1C#N | 100 °C
60 | Cc1ccccc1N1CCN(CCC2CN(C)C(=O)O2)CC1 (centres undefined) | 55 to 57 °C
61 | C(=C/c1ccccc1)/COCCC1CCN(Cc2ccccc2)CC1 | 68 to 70 °C
62 | CCNC(=O)ON=C1CCOc2ccc(OC)cc21 | 97 to 98 °C
63 | CC(CN1C(=O)C2(COc3cc4c(cc32)CCO4)c2ccccc21)OCc1ccc(F)cc1 (centres undefined) | 55 to 60 °C
64 | COCn1c(-c2nccs2)c(Cl)c2cccc([N+](=O)[O-])c21 | 106 to 107 °C
65 | CC(C)[C@@H]1OC(=O)N[C@@H]1C(=O)OCc1ccccc1 | 99 to 101 °C
66 | O=C1COc2ccc(C3=Cc4ccccc4SC3c3ccccc3)cc2N1 (centres undefined) | 226 to 227 °C
67 | CC1OC(=O)C(C)C(NC(=O)OCc2ccccc2)C1C(=O)OCc1ccccc1 (centres undefined) | 110 to 112 °C
68 | CC(=O)c1c(C)[nH]c(Cc2ccccc2)c1C | 166 to 167 °C
69 | CN(C)c1ccc(C=C2C(=O)NC(=S)NC2=O)cc1 | 272 °C
70 | OCC1Cc2c(c(Cl)cc3c(-c4ccccc4Cl)noc23)O1 (centres undefined) | 162 to 163 °C
71 | Cc1nc(-c2ccc(Cl)cc2)oc1COC(C)(C)C(=O)O | 166 to 167 °C
72 | Cc1c(C(=O)Nc2ccc(N3CCC(O)CC3)c(C#N)c2)cnn1-c1ccc(F)cc1 | 215 to 216 °C
73 | CC(C)c1cccc(C(C)C)c1NC(=O)C1CCCC(Cc2ccccn2)(c2ccccc2)C1=O (centres undefined) | 164 to 166 °C
74 | CC(C)(C)c1cc(P(c2ccccc2)c2cc(C(C)(C)C)c(O)c(C(C)(C)C)c2)cc(C(C)(C)C)c1O | 138 to 140 °C
75 | CCn1c(=O)c2c(nc(/C=C/c3ccc(OC)c(OC)c3)n2C)n(CC)c1=O | 190 to 191 °C

Row | Compound | melting point
76 | CCC(CC)NC(=O)c1ccc(-c2scc(Br)c2CC(=O)OC)cc1 | 97 to 98 °C
77 | CS(=O)(=O)c1ccc(-c2cc3c(cc2-c2ccc(F)cc2)OCO3)cc1 | 173 to 174 °C
78 | O=C(O)Cn1c(=O)n2n(c1=O)C(C(=O)O)CCC2 (centres undefined) | 189 to 192 °C
79 | C=Cc1ccc(CN2CCN(Cc3ccc(C=C)cc3)CCN(Cc3ccc(C=C)cc3)CC2)cc1 | 71 to 73 °C
80 | CCOC(=O)c1cnn(-c2cccc(S(=O)(=O)N(C)C)n2)c1S(N)(=O)=O | 102 to 104 °C
81 | COc1cc2c(cc1C)C1(CO2)C(=O)Nc2ccccc21 (centres undefined) | > 250 °C
82 | O=C(O)CCOc1cccc2c1CCc1sc(SC(c3ccccc3)c3ccccc3)nc1-2 | 156 to 158 °C
83 | O=Cc1cnc(Br)cn1 | 56 to 58 °C
84 | CC(=O)SCCc1noc(C(C)c2ccc(-c3ccccc3)c(F)c2)n1 (centres undefined) | 56 to 57 °C
85 | OCCCn1c(C2CCCCC2)nc2cc(Cl)ccc21 | 95 °C
86 | CCN(CC)CCC(=O)OCC1CC(c2ccc(-c3ccc(N4CC(Cn5ccnn5)OC4=O)cc3F)cn2)=NO1 (centres undefined) | 167 °C
87 | CCn1c(=O)c(-c2cccs2)cc2cnc(Nc3ccccc3)nc21 | 223 to 225 °C
88 | CC(C)(C)OC(=O)NCc1cccc(C#N)n1 | 85.9 to 86.5 °C
89 | COc1cc2c(cc1OCc1ccccc1)CCN(C(=O)c1cccc(C#N)c1)C2=O | 195 to 196 °C
90 | CCOC(=O)c1cnc2c([N+](=O)[O-])cccc2c1Cl | 253 to 254 °C
91 | O=C(O)CC1(CCCCCCCCCCC2(C(=O)O)CC2)CC1 | 71.9 to 74.3 °C
92 | CCCCCCCCCCCCc1c(C(=O)OCC)[nH]c(C)c1C | 70 to 71 °C
93 | CC1(C)Oc2cc(C#N)sc2[C@@H](N2CCCCC2=O)[C@@H]1OCc1ccccc1 (relative stereo) | 174 to 178 °C
94 | CON=C(c1ccccc1)c1ccc2c(c1)C(C)(C)CCN2CCOc1ccc(CC(OC(C)=O)C(=O)O)cc1 (centres undefined) | 64 to 66 °C
95 | NS(=O)(=O)c1ccc(-n2nc(C(F)F)cc2-c2nc3cccc(F)c3s2)cc1 | 246 to 248 °C
96 | O=c1[nH]c2sc(-c3ccccc3)nc2c2ccccc12 | > 310 °C
97 | COc1ccc(C=CC(=O)NCCc2ccc(OC(C)(C)C(=O)O)cc2)cc1 | 158 to 159 °C
98 | COc1cc(Br)c(OC)c2c1C=CCC2 | 110 to 111 °C
99 | CCOC(=O)C1=C(c2ccc(-n3c(C)nc4cnccc43)cc2)NC(OC)=NC1c1ccccc1Cl (centres undefined) | 228 to 232 °C
